# Values of other authors in article PMC8473701.
# Experiment: not told
log partition chloroform / water [log10],log partition hexadecane / water [log10],log partition octanol / water [log10],log partition aniline / water [log10],log partition 1-octanol / water [log10],SMILES
0.77,-1.08,1.58,–,–,COc1cccc(O)c1
1.04,-0.79,0.23,–,–,Cc1cnccn1
–,1.22,–,1.481,–,CCCl
–,3.99,–,–,3.37,CC1CCCC1
2.00,1.06,1.25,1.562,1.25,ClCCl
–,3.76,–,2.880,–,CCC(C)C
–,3.11,–,2.488,–,CC(C)C
